The target of data set [1] is T1, Estrogen receptor (Homo sapiens, UniProt Q92731+P03372). The conditions noted are these: mcf7.
Description: Inhibition of estrogen receptor in MCF7 cells
Data set [2] deals with T1, Estrogen receptor. Particulars: ishikawa.
Description: Inhibition of estrogen receptor in Ishikawa cells
The test system of data set [3] is Rattus norvegicus. Briefly: Ability to block estrone-induced increase in uterine wet weight in immature rat at 0.42 mg/kg/day, po after 3 days by uterotropic assay. In kind it is functional. The conditions noted are these: 72 h.
The nature of data set [4]: Bioavailability in rat plasma. It counts as ADME, organism-based.
Data set [5] concerns the target T2, Estrogen receptor (Homo sapiens, UniProt P03372).
T2 sequence (P03372 whole entry): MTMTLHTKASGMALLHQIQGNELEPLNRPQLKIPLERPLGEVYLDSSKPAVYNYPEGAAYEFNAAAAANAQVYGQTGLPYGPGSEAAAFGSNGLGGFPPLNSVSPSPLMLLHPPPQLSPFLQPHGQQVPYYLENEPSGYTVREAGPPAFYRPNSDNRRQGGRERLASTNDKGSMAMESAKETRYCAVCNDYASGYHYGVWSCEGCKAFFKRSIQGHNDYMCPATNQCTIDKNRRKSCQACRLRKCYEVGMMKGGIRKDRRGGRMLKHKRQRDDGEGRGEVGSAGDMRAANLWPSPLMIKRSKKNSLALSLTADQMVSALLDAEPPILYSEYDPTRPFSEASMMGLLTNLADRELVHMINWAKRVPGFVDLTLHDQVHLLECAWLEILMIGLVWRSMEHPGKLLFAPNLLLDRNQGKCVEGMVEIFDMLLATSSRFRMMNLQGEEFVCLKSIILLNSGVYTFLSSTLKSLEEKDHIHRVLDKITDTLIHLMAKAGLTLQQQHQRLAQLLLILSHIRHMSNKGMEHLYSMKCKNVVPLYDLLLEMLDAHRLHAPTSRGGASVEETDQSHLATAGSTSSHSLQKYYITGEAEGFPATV
Description: Binding affinity to ERalpha

For data set [6], the system named is Rattus norvegicus. Kind of data set: (§1) Ability to block estrone-induced increase in uterine wet weight in immature rat at […], po after 3 days by uterotropic assay. The conditions noted are these: 72 h. In kind it is functional.
The species named for data set [7] is Rattus norvegicus. Briefly: Reduction in serum cholesterol level in ovariectomized rat. It counts as functional. The arrangement: scale not given: the % may be the effect or the level left.
The subject of data set [8] is Rattus norvegicus. The description is as §1. It counts as functional. The conditions noted are these: 72 h. This is another data set of the same source.
The subject of data set [9] is Rattus norvegicus. Kind of data set: Ability to suppress increase of tail skin temperature in morphine-dependent rat at […].day, po. It counts as functional, organism-based. Also noted: dose 1.4 mg/kg.
In data set [10] the test system is Rattus norvegicus. Briefly: (§2) Increase in vaginal fluid in ovariectomized rat at […], po. In kind it is functional, organism-based. Also noted: dose 0.14 mg/kg.
Data set [11] deals with Rattus norvegicus. Described as §2. In kind it is functional, organism-based. The arrangement: dose 1.4 mg/kg.
The target in another data set is Estrogen receptor beta (Homo sapiens, UniProt Q92731).
Estrogen receptor beta, sequence (Q92731 whole entry): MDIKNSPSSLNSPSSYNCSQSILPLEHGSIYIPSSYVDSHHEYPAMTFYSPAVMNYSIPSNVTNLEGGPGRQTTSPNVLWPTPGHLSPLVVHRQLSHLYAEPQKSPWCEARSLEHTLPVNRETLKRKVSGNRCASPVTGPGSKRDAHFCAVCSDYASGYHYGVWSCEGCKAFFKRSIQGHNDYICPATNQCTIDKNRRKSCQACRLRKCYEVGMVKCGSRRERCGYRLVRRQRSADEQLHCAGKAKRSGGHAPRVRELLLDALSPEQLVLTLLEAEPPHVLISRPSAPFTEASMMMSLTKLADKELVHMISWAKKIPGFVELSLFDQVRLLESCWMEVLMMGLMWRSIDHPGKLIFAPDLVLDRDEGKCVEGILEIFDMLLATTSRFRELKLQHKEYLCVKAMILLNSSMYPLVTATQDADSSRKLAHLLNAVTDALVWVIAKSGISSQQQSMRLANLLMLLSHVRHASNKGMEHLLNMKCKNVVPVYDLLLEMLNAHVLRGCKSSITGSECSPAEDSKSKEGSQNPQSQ
Data set [12] is filed under the species Rattus norvegicus. Kind of data set: Inhibition of bone loss in ovariectomized rat. In kind it is functional, organism-based.
The species entered for data set [13] is Rattus norvegicus. Kind of data set: Ability to suppress increase of tail skin temperature in morphine-dependent rat. It counts as functional, organism-based.
Data set [14] deals with T1, Estrogen receptor. Briefly: Agonist activity at estrogen receptor in MCF7 cells. It counts as functional, cell-based.

pIC50: −log10 of the molar value. The source made the active and inactive calls. The rule behind the calls is not given here.

As a reminder, the IC50 is the midpoint of a concentration-inhibition curve. By inhibition in vivo is commonly meant the share of the control response that was lost under treatment. By bioavailability is commonly meant the share of a dose that reaches the circulation, judged against a reference dose that is usually intravenous. Broadly, the pIC50 is the IC50 on a negative log10 scale, so that one unit is a factor of ten. As usually defined, the EC50 is the concentration needed to bring the measured effect to its halfway point.

Description for Estrogen receptor beta: Binding affinity to ERbeta

For the molecule `CN(C)CCOc1ccc(C2Oc3cc(O)ccc3C3=C2c2ccc(O)cc2OC3)cc1` (stereo not drawn), the values for the IC50 against Estrogen receptor [1] and against Estrogen receptor [2] were 0.22 µM and 0.18 µM, respectively.

Molecule `CC(C)(C)C(=O)Oc1ccc2c(c1)O[C@H](c1ccc(OCCN3CCCCC3)cc1)C1=C2COc2cc(OC(=O)C(C)(C)C)ccc21` came in with an inhibition in vivo at 0.42 mg/kg/day with Rattus norvegicus [3] of 55%. The molecule also yielded a bioavailability in data set [4] of 11%. Moreover, the pIC50 against Estrogen receptor [5] and on Estrogen receptor beta was below 5.00 in each case. Also, the inhibition in vivo at […] amounted to 75% in the data set with Rattus norvegicus [6] and 27% with Rattus norvegicus [8]. Besides, the Activity is 33% in the data set listed under Rattus norvegicus [7] and “Dose-dependent effect” in the data set filed under Rattus norvegicus [12]. For the same molecule, the IC50 against Estrogen receptor [1] was found to be 0.51 µM; at Estrogen receptor [2] it was 0.175 µM. Moreover, the outcome in the data set on Rattus norvegicus [9], in the data set on Rattus norvegicus [10] and in the data set with Rattus norvegicus [11] was Active.

As for `Oc1ccc2c(c1)O[C@@H](c1ccc(OCCN3CCCCC3)cc1)C1=C2COc2cc(O)ccc21`, the pIC50 against Estrogen receptor [5] was 9.21; at Estrogen receptor beta it was 8.89. Further, the results for the IC50 on Estrogen receptor [1] and against Estrogen receptor [2] were 0.416 µM and 0.0171 µM, respectively.

Regarding `Oc1ccc2c(c1)O[C@H](c1ccc(OCCN3CCCCC3)cc1)C1=C2COc2cc(O)ccc21`, the pIC50 on Estrogen receptor [5] is 7.29; against Estrogen receptor beta, 7.69. The results for the IC50 at Estrogen receptor [1] and against Estrogen receptor [2] were 0.599 µM and 0.0433 µM, respectively.

On to `Oc1ccc2c(c1)OC(c1ccc(OCCN3CCCCC3)cc1)C1=C2COc2cc(O)ccc21` (stereo not drawn), for which the IC50 at Estrogen receptor [1] came to 0.11 µM; on Estrogen receptor [2], 0.012 µM.

`CC(C)(C)C(=O)Oc1ccc2c(c1)O[C@@H](c1ccc(OCCN3CCCCC3)cc1)C1=C2COc2cc(OC(=O)C(C)(C)C)ccc21`: the inhibition in vivo at 0.42 mg/kg/day in the data set with Rattus norvegicus [3] is 88%. In data set [4], this molecule gave a bioavailability of 9%. The results for the pIC50 on Estrogen receptor [5] and against Estrogen receptor beta were below 6.00 and below 5.00, respectively. Moreover, the inhibition in vivo at […] is 100% in the data set on Rattus norvegicus [6] and 55% in the data set with Rattus norvegicus [8]. Besides, the Activity in the data set listed under Rattus norvegicus [7] was 33%; in the data set listed under Rattus norvegicus [12], “Dose-dependent effect”. In addition, the IC50 at Estrogen receptor [1] worked out at 0.67 µM; on Estrogen receptor [2], 0.099 µM. Moreover, in the data set listed under Rattus norvegicus [13], the result was inactive.

Molecule `CN(C)c1ccc(C2Oc3cc(O)ccc3C3=C2c2ccc(O)cc2OC3)cc1` (stereo not drawn) gave an EC50 at Estrogen receptor [14] of 0.071 µM. Also, the IC50 at Estrogen receptor [2] is 3.8 µM.

The record behind these values is ChEMBL document CHEMBL1147723, “Novel chromene-derived selective estrogen receptor modulators useful for alleviating hot flushes and vaginal dryness” (J Med Chem, 2006).
